The values that follow come from patent US20250129052A1, “PYRAZINE COMPOUNDS FOR THE CONTROL OF INVERTEBRATE PESTS” (priority 2021, published 2025).

Usually mortality stands for the share of the test organisms that died.

Holding throughout (assay type): in vivo
For series [1], the system named is green peach aphid (Myzus persicae). Briefly: B.1 Green peach aphid, systemic, artificial diet in microtiter plates. The settings on record: for mortality at 9.9 ppm / mortality at 7.9 ppm: read-out: % mortality in comparison to untreated controls, B.1; for mortality at 2500 ppm: 72 h, 3 days, aphid diet, read-out: mortality in comparison with untreated controls. The source says: B.1 Green Peach Aphid (Myzus persicae)
For evaluating control of green peach aphid (Myzus persicae) through systemic means, the test unit consisted of 96-well-microtiter plates containing liquid artificial diet under an artificial mem brane.
The compounds were formulated using a solution containing 75% v/v water and 25% v/v DMSO. Different concentrations of formulated compounds were pipetted into the aphid diet, using a custom built pipetter, at two replications.
After application, 5-8 adult aphids were placed on the artificial membrane inside the microtiter plate wells. The aphids were then allowed to suck on the treated aphid diet and incubated at about 23±1° C. and about 50±5% relative humidity for 3 days. Aphid mortality and fecundity was then visually assessed.

Series [2] relates to Orchid thrips; Dichromothrips corbetti. Briefly: B.6 Orchid thrips, floral-immersion technique. The settings on record: 300 ppm; 72 hours after treatment. The method, then:
B.6 ANAPCO (Orchid thrips; Dichromothrips corbetti)
Dichromothrips corbetti adults used for bioassay are obtained from a colony maintained continuously under laboratory conditions. For testing purposes, the test compound is diluted in a 1:1 mixture of acetone:water (vol:vol), plus Kinetic at a rate of 0.01% v/v.
Thrips potency of each compound is evaluated by using a floral-immersion technique. Each orchid petal is dipped into treatment solution and allowed to dry in Petri dishes. Treated petals are placed into individual re-sealable plastic along with about 20 adult thrips. All test arenas are held under dark condition and a temperature of about 28° C. for duration of the assay. The percent mortality is recorded 72 hours after treatment.

Series [3] concerns Black Bean Aphid; Aphis craccivora. Briefly: B.7 Black bean aphid, sprayed potted bean plants. The settings on record: 300 ppm; after 72 hours. The method, then:
B.7 APHICR (Black Bean Aphid; Aphis craccivora)
The active compound is dissolved at the desired concentration in a mixture of 1:1 (vol:vol) distilled water:acetone. Surfactant (Kinetic) is added at a rate of 0.01% (vol/vol). The test solution is prepared at the day of use.
Potted (Kord traditional square pots Size 3″ and 2.5″ in depth) bush beans are cleaned with the apical leaves removed using pointed forceps, leaving only the cotyledon leaves. Plants are inoculated with about 30 mixed-stage aphid colony 24 hours before spraying. Potted bean plants are sprayed with the test solutions using a DeVilbiss hand atomizer (20-30 psi). Treated plants are allowed to air-dry in the laboratory for about an hour before placing them inside the holding room maintained at 27° C., 50% RH and […] conditions. Stem of the treated bean plants are inserted in the slit of cut circle filter paper to catch the falling dead aphids. Assessment of population reduction (% mortality) is done after 72 hours.

Series [4] deals with tobacco budworm (Heliothis virescens). Briefly: B.2 Tobacco budworm, insect diet with eggs in microtiter plates. The settings on record: 120 h, 5 days, egg and larval mortality, read-out: mortality in comparison with untreated controls. The method, then:
B.2 Tobacco Budworm (Heliothis virescens)
For evaluating control of tobacco budworm (Heliothis virescens), the test unit consisted of 96-well-microtiter plates containing an insect diet and 15-25 H. virescens eggs.
The compounds were formulated using a solution containing 75% v/v water and 25% v/v DMSO. Different concentrations of formulated compounds were sprayed onto the insect diet at 10 μl, using a custom-built micro atomizer, at two replications.
After application, microtiter plates were incubated at about 28±1° C. and about 80±5% relative humidity for 5 days. Egg and larval mortality was then visually assessed.

Series [5] concerns boll weevil (Anthonomus grandis). Briefly: B.3 Boll weevil, insect diet with eggs in microtiter plates. The settings on record: for mortality at 2500 ppm: 120 h, read-out: mortality in comparison with untreated controls; for mortality at 7.9 ppm: read-out: % mortality in comparison to untreated controls, B.3. The method, then: B.3 Boll Weevil (Anthonomus grandis)
For evaluating control of boll weevil (Anthonomus grandis), the test unit consisted of 96-well-microtiter plates containing an insect diet and 5-10 A. grandis eggs.
The compounds were formulated using a solution containing 75% v/v water and 25% v/v DMSO. Different concentrations of formulated compounds were sprayed onto the insect diet at 5 μl, using a custom-built micro atomizer, at two replications.
After application, microtiter plates were incubated at about 25±1° C. and about 75±5% relative humidity for 5 days. Egg and larval mortality was then visually assessed.

The subject of series [6] is Southern Armyworm (Spodoptera eridania), 2nd Instar Larvae. Briefly: B.4 Southern armyworm, 2nd instar larvae, sprayed lima bean plants. The conditions noted are these: 96 h, 4 days after treatment, foliar spray, read-out: mortality in comparison with untreated controls. The method, then: B.4. Southern Armyworm (Spodoptera eridania), 2nd Instar Larvae
The active compounds were formulated by a Tecan liquid handler in 100% cyclohexanone as a 10,000-ppm solution supplied in tubes. The 10,000-ppm solution was serially diluted in 100% cyclohexanone to make interim solutions. These served as stock solutions for which final dilutions were made by the Tecan in 50% acetone:50% water (v/v) into 10 or 20 ml glass vials. A non-ionic surfactant (Kinetic@) was included in the solution at a volume of 0.01% (v/v). The vials were then inserted into an automated electrostatic sprayer equipped with an atomizing nozzle for application to plants/insects. Lima bean plants (variety Sieva) were grown 2 plants to a pot and selected for treatment at the 1st true leaf stage. Test solutions were sprayed onto the foliage by an automated electrostatic plant sprayer equipped with an atomizing spray nozzle. The plants were dried in the sprayer fume hood and then removed from the sprayer. Each pot was placed into perforated plastic bags with a zip closure. Ten to 11 armyworm larvae were placed into the bag and the bags zipped closed. Test plants were maintained in a growth room at about 25° C. and about 20-40% relative humidity for 4 days, avoiding direct exposure to fluorescent light (14:10 light:dark photoperiod) to prevent trapping of heat inside the bags. Mortality and reduced feeding were assessed 4 days after treatment, compared to untreated control plants.

For series [7], the system named is yellow fever mosquito (Aedes aegypti). Briefly: whole plant or invertebrate. The conditions noted are these: 48 h, 2 days, larval mortality, read-out: mortality in comparison with untreated controls. The method, then:
B.5 Yellow Fever Mosquito (Aedes aegypti)
For evaluating control of yellow fever mosquito (Aedes aegypti) the test unit consisted of 96-well-microtiter plates containing 200 μl of tap water per well and 5-15 freshly hatched A. aegypti larvae.
The active compounds were formulated using a solution containing 75% (v/v) water and 25% (v/v) DMSO. Different concentrations of formulated compounds or mixtures were sprayed onto the insect diet at 2.5 μl, using a custom-built micro atomizer, at two replications.
After application, microtiter plates were incubated at 28±1° C., 80±5% RH for 2 days. Larval mortality was then visually assessed.

In the case of `Cc1cnn(-c2nccnc2C(C)NC(=O)c2cc(C(F)(F)F)cc(C(F)(F)F)c2)n1` (centres unmarked) [WO 2021/037614 P1, reference compound], the mortality at 9.9 ppm in series [1] amounted to 0%. Moreover, the “% mortality in comparison to untreated controls, B.6” value (from here on “% mortality in comparison … B.6”) in series [2] was 0%. The “% mortality in comparison to untreated controls, B.7” value (“% mortality in comparison … B.7” below) in series [3] came out at 0%.

Take `CC(NC(=O)c1cc(C(F)(F)F)cc(C(F)(F)F)c1)c1nccnc1-c1ncn(C)n1` (centres unmarked) [Compound I1-12]: in series [1], the mortality at 9.9 ppm came to 100%. The mortality at 2500 ppm in series [1], in series [4], in series [5] and in series [7] was at least 75% throughout. Besides, in series [6], the mortality at 300 ppm is at least 75%. For the same compound, in series [2], the “% mortality in comparison … B.6” value was found to be 100%. Moreover, in series [3], the “% mortality in comparison … B.7” value turned out to be 100%.

With `CC(NC(=O)c1cc(C(F)(F)F)cc(C(F)(F)F)c1)c1nccnc1-n1cncn1` (centres unmarked) [WO 2021/037614 P46, reference compound], in series [1], the mortality at 7.9 ppm worked out at 0% and the mortality at 9.9 ppm came out at 25%. In series [5], the mortality at 7.9 ppm was found to be 50%. Moreover, the “% mortality in comparison … B.6” value in series [2] was found to be 0%. Moreover, the “% mortality in comparison … B.7” value in series [3] is on record as 50%.

For the compound `CC(c1nccnc1-c1ncn(C(C)C)n1)N(C)C(=O)c1cc(Cl)cc(S(C)(=O)=O)c1` (centres unmarked) [Compound I1-5, 3-chloro-N-[1-[3-(1-isopropyl-1,2,4-triazol-3-yl)pyrazin-2-yl]ethyl]-N-methyl-5-methylsulfonyl-benzamide], the mortality at 2500 ppm in series [1], in series [5] and in series [7] was at least 75% each time. Also, the mortality at 300 ppm in series [6] was at least 75%.

Consider `CC(NC(=O)c1cc(Cl)cc(C(F)(F)F)c1)c1nccnc1-c1ncn(CC=C(Cl)Cl)n1` (centres unmarked) [Compound I1-11, 3-chloro-N-[1-[3-[1-(3,3-dichloroallyl)-1,2,4-triazol-3-yl]pyrazin-2-yl]ethyl]-5-(trifluoromethyl)benzamide], for which the mortality at 2500 ppm in series [4], in series [5] and in series [7] was at least 75% in each case.

Consider `CC(NC(=O)c1cc(Br)cc(C(F)(F)F)c1)c1nccnc1-c1ncn(CC(F)(F)F)n1` (centres unmarked) [Compound I1-1, 3-bromo-N-[1-[3-[1-(2,2,2-trifluoroethyl)-1,2,4-triazol-3-yl]pyrazin-2-yl]ethyl]-5-(trifluoromethyl)benzamide], for which the mortality at 2500 ppm in series [1], in series [4], in series [5] and in series [7] was at least 75% each time. The mortality at 300 ppm in series [6] is at least 75%.

For the compound `CC(NC(=O)c1cc(Cl)nc(Cl)c1)c1nccnc1-c1ncn(-c2ccccc2)n1` (centres unmarked) [Compound I2-1, 2,6-dichloro-N-[1-[3-(1-phenyl-1,2,4-triazol-3-yl)pyrazin-2-yl]ethyl]pyridine-4-carboxamide], the mortality at 2500 ppm in series [1], in series [5] and in series [7] was at least 75% throughout.

In the case of `CC(NC(=O)c1cc(C(F)(F)F)cc(C(F)(F)F)c1)c1nccnc1-c1ncn(CC(F)(F)F)n1` (centres unmarked) [Compound I1-13], the mortality at 7.9 ppm in series [1] and in series [5] was 100% in each case. Further, the mortality at 2500 ppm in series [1], in series [4], in series [5] and in series [7] was at least 75% throughout. In addition, in series [6], the mortality at 300 ppm is at least 75%. In addition, the “% mortality in comparison … B.6” value in series [2] is listed as 100%.

`COc1ccc(Cn2cnc(-c3nccnc3C(C)NC(=O)c3cc(Cl)cc(C(F)(F)F)c3)n2)cc1` (centres unmarked) [Compound I1-4, 3-chloro-N-[1-[3-[1-[(4-methoxyphenyl)methyl]-1,2,4-triazol-3-yl]pyrazin-2-yl]ethyl]-5-(trifluoromethyl)benzamide]: the mortality at 2500 ppm in series [5] is at least 75%. For the same compound, the mortality at 300 ppm in series [6] is at least 75%.

Consider `CC(NC(=O)c1cc(Cl)cc(C(F)(F)F)c1)c1nccnc1-c1ncn(CC2CC2(Cl)Cl)n1` (centres unmarked) [Compound I1-14, 3-chloro-N-[1-[3-[1-[(2,2-dichlorocyclopropyl)methyl]-1,2,4-triazol-3-yl]pyrazin-2-yl]ethyl]-5-(trifluoromethyl)benzamide], for which the mortality at 2500 ppm in series [1], in series [4], in series [5] and in series [7] was at least 75% each time. Further, in series [6], the mortality at 300 ppm was at least 75%.

Regarding `CC(NC(=O)c1cc(Cl)cc(S(C)(=O)=O)c1)c1nccnc1-c1ncn(C(C)C)n1` (centres unmarked) [Compound I1-7, 3-chloro-N-[1-[3-(1-isopropyl-1,2,4-triazol-3-yl)pyrazin-2-yl]ethyl]-5-methylsulfonyl-benzamide], the mortality at 2500 ppm in series [1], in series [5] and in series [7] was at least 75% in each case. In addition, in series [6], the mortality at 300 ppm was at least 75%.
